Laboratory results: BindingDB's records for doi:10.1002/1520-636X(2001)13:3 (University of Maryland, 2001)
pKi: −log10 of the molar value.

Legend:
[1] = target: Kappa-type opioid receptor (Rattus norvegicus, UniProt P34975)
Mu-type opioid receptor = Mu-type opioid receptor (Rattus norvegicus, UniProt P33535)
[2] = target: Delta-type opioid receptor (Mus musculus, UniProt P32300)
Chain of Delta-type opioid receptor (P32300 whole entry): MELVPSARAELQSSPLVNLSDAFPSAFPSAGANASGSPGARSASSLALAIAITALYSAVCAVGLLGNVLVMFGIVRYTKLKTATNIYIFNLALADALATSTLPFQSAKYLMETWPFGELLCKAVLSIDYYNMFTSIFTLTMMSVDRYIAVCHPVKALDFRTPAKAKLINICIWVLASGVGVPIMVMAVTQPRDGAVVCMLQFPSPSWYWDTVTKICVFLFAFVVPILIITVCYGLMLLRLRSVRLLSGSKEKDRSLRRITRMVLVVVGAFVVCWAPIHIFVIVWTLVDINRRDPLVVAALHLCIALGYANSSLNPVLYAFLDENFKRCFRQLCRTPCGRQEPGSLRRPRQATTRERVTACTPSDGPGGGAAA

Chain of Kappa-type opioid receptor (P34975 whole entry): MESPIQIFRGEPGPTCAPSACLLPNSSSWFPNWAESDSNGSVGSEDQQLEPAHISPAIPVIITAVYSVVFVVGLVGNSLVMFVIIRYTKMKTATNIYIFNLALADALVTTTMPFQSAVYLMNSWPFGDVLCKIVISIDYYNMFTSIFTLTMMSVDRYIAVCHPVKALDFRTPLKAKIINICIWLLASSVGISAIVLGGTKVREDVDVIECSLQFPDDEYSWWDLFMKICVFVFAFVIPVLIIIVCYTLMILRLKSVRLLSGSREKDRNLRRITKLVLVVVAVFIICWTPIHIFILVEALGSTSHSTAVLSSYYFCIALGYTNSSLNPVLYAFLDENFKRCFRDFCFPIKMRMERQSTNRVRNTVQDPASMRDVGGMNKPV
Chain of Mu-type opioid receptor (P33535 whole entry): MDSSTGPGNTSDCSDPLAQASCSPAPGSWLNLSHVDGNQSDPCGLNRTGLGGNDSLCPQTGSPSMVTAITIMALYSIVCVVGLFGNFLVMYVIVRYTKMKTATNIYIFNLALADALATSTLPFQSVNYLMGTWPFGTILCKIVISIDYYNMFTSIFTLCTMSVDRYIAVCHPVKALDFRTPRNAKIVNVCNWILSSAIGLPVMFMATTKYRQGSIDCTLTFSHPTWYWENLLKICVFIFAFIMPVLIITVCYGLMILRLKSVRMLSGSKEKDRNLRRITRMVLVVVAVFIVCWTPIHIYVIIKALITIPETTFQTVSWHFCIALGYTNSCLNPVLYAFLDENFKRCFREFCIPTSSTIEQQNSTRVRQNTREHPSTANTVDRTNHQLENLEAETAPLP

Row | SMILES | pKi [1] | pKi (Mu-type opioid receptor) | pKi [2]
1 | CC(C)C[C@H](NC(=O)[C@H](Cc1ccccc1)NC(=O)CNC(=O)CNC(=O)[C@@H](N)Cc1ccc(O)cc1)C(=O)N[C@@H](CCCN=C(N)N)C(=O)N[C@@H](CCCN=C(N)N)C(=O)N[C@H](C)C(=O)N[C@@H](CCCN=C(N)N)C(=O)N1CCC[C@H]1C(=O)N[C@@H](CCCCN)C(N)=O [[D-Ala8]Dyn A-(1-11)NH2] | 8.02 | – | –
2 | CC(C)C[C@H](NC(=O)[C@@H](Cc1ccccc1)NC(=O)CNC(=O)CNC(=O)[C@@H](N)Cc1ccc(O)cc1)C(=O)N[C@@H](CCCN=C(N)N)C(=O)N[C@@H](CCCN=C(N)N)C(=O)N[C@H](C)C(=O)N[C@@H](CCCN=C(N)N)C(=O)N1CCC[C@H]1C(=O)N[C@@H](CCCCN)C(N)=O [[D-Phe4, D-Ala8]Dyn A-(1-11)NH2] | – | 7.05 | < 5.00
